Measurements taken from publication PMC3076313 (Bioorganic chemistry, 2010).
Positions count from the first letter of the chain named.

Assays:
p300 HAT = p300 HAT inhibitor; cited from earlier work
[1] = target: T1, D1625R/D1628R double mutant of p300 HAT (Homo sapiens, UniProt Q09472, D1625R/D1628R); experiment: p300 HAT radioactive acetyltransferase inhibition assay, double mutant enzyme
T1 sequence (Q09472 1287-1663 D1625R/D1628R limits assumed): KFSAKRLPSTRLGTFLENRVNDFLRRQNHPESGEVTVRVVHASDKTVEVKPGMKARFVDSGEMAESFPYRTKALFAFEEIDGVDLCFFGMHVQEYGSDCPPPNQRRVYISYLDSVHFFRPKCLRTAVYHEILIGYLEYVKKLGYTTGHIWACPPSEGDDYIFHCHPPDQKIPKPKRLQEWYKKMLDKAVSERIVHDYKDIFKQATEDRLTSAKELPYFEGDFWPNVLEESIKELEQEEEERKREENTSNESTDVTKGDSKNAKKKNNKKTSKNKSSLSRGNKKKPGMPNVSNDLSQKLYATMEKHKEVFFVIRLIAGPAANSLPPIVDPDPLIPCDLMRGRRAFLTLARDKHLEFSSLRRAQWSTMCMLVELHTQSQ

[2] = target: T2, semisynthetic p300 HAT (wt p300 HAT) (Homo sapiens, UniProt Q09472); settings: 20 μM acetyl-CoA, 100 μM H4-15 peptide, 7 min pre-incubation, 30°C
T2 sequence (Q09472 1287-1663 limits assumed): T1 sequence (Q09472 1287-1663 D1625R/D1628R limits assumed) with R339D, R342D

IC50 ([1]; D1625R, D1628R p300 HAT, 20 μM acetyl-CoA, 100 μM H4-15 peptide): 209 ± 15 nM
fold weakening of IC50 with D1625R/D1628R p300 HAT compared with wt p300 HAT ([1]; double mutant vs wt): 3.5 fold
IC50 [2]: 60 nM
SMILES: CC(=O)N[C@@H](CCCCNC(=O)CSCCNC(=O)CCNC(=O)[C@H](O)C(C)(C)COP(=O)(O)OP(=O)(O)OC[C@H]1O[C@@H](n2cnc3c(N)ncnc32)[C@H](O)[C@@H]1OP(=O)(O)O)C(N)=O [Lys-CoA]
Ki (p300 HAT): 20 nM
